Measurements: US20130303565A1 (priority 2012, published 2013)

How the values were obtained:
Bcr-Abl tyrosine kinase = settings: inhibiting activity of the Bcr-Abl tyrosine kinase and proliferation, versus imatinib; cited from earlier work
[1] = system: TF1 (Human erythro leukemia cells); assay: Cell proliferation assay (Trypan Blue dye exclusion), TF1; assay type: cell-based; settings: tritoqualine 10^-5-10^-8 M, 72 hr, with or without G-CSF 50 ng/mL
Procedure: (§1) U937 (monocytic leukemia cells), and HL-60 (human promyelocytic cells) and TF1 (Human erythro leukemia cells) were obtained from cell bank of Necker. HL-60, U937 and TF1 were maintained. in RPMI-1640 medium supplemented with 10% FCS, 100 U/mL penicillin, and 100 μg/mL streptomycin. These cells were cultured in an incubator containing humidified air with 5% CO2 at […].
(§2) HL60, U937, TF1 cells (5×10^5 cells/mL) in conditioning medium were cultured with various concentrations of tritoqualine (10^−5-10^−8 M) in the presence or absence of G-CSF (50 ng/mL) in 6-well flat-bottomed plates for 72 hr. Cell proliferation assay and viability examination were performed using the Trypan Blue dye exclusion method. All experiments were performed in triplicate.
(§3) The maximum effect is on TF1 cells line. The inhibition is about 85%. The effect on HL60 is only 60% of inhibition. This effect dose is equivalent to the dose of 200 mg to 2000 mg of tritoqualine in human. This effect on leukemia clone is very surprising because tritoqualine is a molecule with low toxicity.

[2] = system: HL-60 (human promyelocytic cells); assay: Cell proliferation assay (Trypan Blue dye exclusion), HL60; assay type: cell-based; settings: tritoqualine 10^-5-10^-8 M, 72 hr, with or without G-CSF 50 ng/mL
Procedure: as §1, §2, §3

[3] = system: U937 (monocytic leukemia cells); assay: Cell proliferation assay (Trypan Blue dye exclusion), U937; assay type: cell-based; settings: each leukemic cell line incl. U937, tritoqualine 10^-5-10^-8 M, 72 hr
Procedure: as §1, §2, §3

histamine H4 = histamine H4 (Homo sapiens, UniProt Q9H3N8); assay: Histamine H4 agonist activity

histamine H4 activity (in words) (histamine H4)	Structure (SMILES)	potency relative to imatinib (Bcr-Abl tyrosine kinase)	inhibition of proliferation and viability (maximum effect) [1]	inhibition of proliferation and viability [2]	inhibition of proliferation and viability (in words) [3]
–	Cc1cn(-c2cc(NC(=O)c3ccc(C)c(Nc4nccc(-c5cccnc5)n4)c3)cc(C(F)(F)F)c2)cn1 [Nilotinib]	10-30 fold	–	–	–
histamine H4 agonist	CCOc1c(N)c2c(c(OCC)c1OCC)C(C1c3c(cc4c(c3OC)OCO4)CCN1C)OC2=O (centres unmarked) [tritoqualine, 7-Amino-4,5,6-triethoxy-3-(5,6,7,8-tetrahydro-4-methoxy-6-methyl-1,3-dioxolo[4,5-g]isoquinolin-5-yl) phthalide]	–	about 85%	60%	dose-dependently inhibited proliferation and viability
